Measurements taken from PubChem BioAssay AID651829 (Broad Institute, 2012).
“And” between values parts separate entries of the source, which are not always exact repeats. Equal entries are not always repeated. The source made the active and inactive calls.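 The calls were made as follows: active = max delta Tm melting temperature shift above 1 degree C at some tested dose; inactive = the rest.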

What follows are compounds tested against Kelch-like ECH-associated protein 1 (Homo sapiens) (UniProt Q14145) (assay: Keap1 Kelch domain binders by melting shift, dose response, orthogonal assay for Keap1-Nrf2 interaction inhibitor project, biophysical, thermal shift, RT-PCR instrument, dry powder (AID 651829)). Conditions: Recombinant Keap1 Kelch domain, Sypro Orange, at 0.08 µM, top dose 10 µM, active compounds read high.
Kelch-like ECH-associated protein 1 (Homo sapiens), sequence (Q14145 whole entry, looked up, the tested form may be a part): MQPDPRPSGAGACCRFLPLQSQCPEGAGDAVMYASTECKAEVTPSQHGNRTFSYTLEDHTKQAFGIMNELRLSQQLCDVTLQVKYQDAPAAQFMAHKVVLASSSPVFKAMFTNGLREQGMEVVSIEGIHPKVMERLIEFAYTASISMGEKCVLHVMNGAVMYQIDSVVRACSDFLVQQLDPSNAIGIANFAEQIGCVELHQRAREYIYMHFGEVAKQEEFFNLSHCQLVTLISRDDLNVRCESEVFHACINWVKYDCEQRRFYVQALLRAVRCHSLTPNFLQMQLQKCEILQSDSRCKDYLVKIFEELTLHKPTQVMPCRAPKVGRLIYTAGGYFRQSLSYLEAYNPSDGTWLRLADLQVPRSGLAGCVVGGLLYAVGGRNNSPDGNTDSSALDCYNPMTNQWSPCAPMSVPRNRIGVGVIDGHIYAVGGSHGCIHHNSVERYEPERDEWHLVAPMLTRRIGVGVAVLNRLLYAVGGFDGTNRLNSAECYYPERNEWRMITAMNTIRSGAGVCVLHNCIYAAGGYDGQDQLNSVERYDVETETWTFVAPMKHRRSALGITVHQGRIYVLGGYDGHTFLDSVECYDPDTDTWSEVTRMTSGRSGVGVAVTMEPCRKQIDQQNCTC

max delta Tm | Compound
0.259 °C (inactive) | O=C1c2ccccc2C(=O)N1CC1c2ccccc2CCN1C(=O)Cc1ccccc1 (configuration not stated)

Same assay, conditions: Recombinant Keap1 Kelch domain, Sypro Orange, at 0.16 µM, top dose 38 µM, active compounds read high

Compound | max delta Tm
Cc1cc(C)c(S(=O)(=O)Nc2nc(N(C)C)nc3ccccc23)c(C)c1 | 0.107 °C (inactive)
O=C(O)[C@H]1CCCC[C@H]1C(=O)N1CCc2ccccc2C1 (racemic) | -0.041 °C (inactive)
Cc1cc(C)c(S(=O)(=O)Nc2nc(NCCO)nc3ccccc23)c(C)c1 | 0.147 °C (inactive)
O=C(NCCCN1CCOCC1)c1ccccc1C(=O)NC[C@@H]1c2ccccc2CCN1C(=O)C1CCCCC1C(=O)O (some centres not stated) | 0.217 °C (inactive)

Now from value to compound:

max delta Tm | Compound
0.154 °C (inactive) | O=C(O)[C@H]1CCCC[C@H]1C(=O)NC(CN1C(=O)c2ccccc2C1=O)c1ccccc1 (some centres not stated)
0.168 °C (inactive) | O=C(O)C1CCCCC1C(=O)N1CCc2ccccc2[C@H]1C(=O)NCCc1ccccc1 (some centres not stated)
-0.028 °C (inactive) | O=C1c2ccccc2C(=O)N1C[C@@H]1c2ccccc2CCN1C(=O)OCc1ccccc1
0.129 °C (inactive) | O=C(O)[C@H]1CCCC[C@H]1C(=O)N1CCc2ccccc2[C@H]1CNc1nc(Cl)nc2ccccc12
0.175 °C (inactive) | COC(=O)C1CCCCC1C(=O)N1CCc2ccccc2C1CN1C(=O)c2ccccc2C1=O (configuration not stated)
0.172 °C (inactive) | O=C(O)[C@H]1CCCC[C@H]1C(=O)N1CCC2=C(CCCC2)C1CN1C(=O)c2ccccc2C1=O (some centres not stated)
-0.037 °C (inactive) | O=C(O)c1ccccc1C(=O)NC[C@@H]1c2ccccc2CCN1C(=O)[C@@H]1CCCC[C@@H]1C(=O)O
0.132 °C (inactive) | O=C(NC[C@@H]1c2ccccc2CCN1C(=O)[C@@H]1CCCC[C@@H]1C(=O)O)c1ccccc1

Same assay, conditions: Recombinant Keap1 Kelch domain, Sypro Orange, at 0.3 µM, top dose 38 µM, active compounds read high

Compound | max delta Tm
O=S(=O)(Nc1nc(NCC2CCCCC2)nc2ccccc12)c1ccccc1 | 0.21 °C (inactive)
Cc1ccc(S(=O)(=O)NNc2nc(NCC(N)=O)nc3ccccc23)cc1 | 0.22 °C (inactive)
COC(=O)CNc1nc(NS(=O)(=O)c2c(C)cc(C)cc2C)c2ccccc2n1 | 0.26 °C (inactive)
Cc1ccc(S(=O)(=O)NNc2nc(C(C(=O)OC(C)C)C(=O)C(F)(F)F)nc3ccccc23)cc1 (configuration not stated) | 0.2 °C (inactive)
Cc1ccc(S(=O)(=O)NC(=O)[C@@H]2c3ccccc3CCN2C(=O)[C@@H]2CCCC[C@@H]2C(=O)O)cc1 | 0.155 °C (inactive)

Now from value to compound:

max delta Tm | Compound
0.052 °C (inactive) | O=C(O)C1CCCCC1C(=O)NCC1c2ccccc2CCN1C(=O)Cc1ccccc1 (configuration not stated)
0.192 °C (inactive) | COc1ccccc1CCNC(=O)[C@@H]1c2ccccc2CCN1C(=O)C1CCCCC1C(=O)O (some centres not stated)

Same assay, conditions: Recombinant Keap1 Kelch domain, Sypro Orange, at 0.6 µM, top dose 38 µM, active compounds read high

Compound | max delta Tm
C=CC(=O)NC[C@@H]1c2ccccc2CCN1C(=O)[C@@H]1CCCC[C@@H]1C(=O)O | 0.229 °C (inactive)
CC(C)CNc1nc(NS(=O)(=O)c2ccccc2)c2ccccc2n1 | 0.095 °C (inactive)
CCOC(=O)Cc1nc(NS(=O)(=O)c2c(C)cc(C)cc2C)c2ccccc2n1 | 0.029 °C (inactive)
O=C(O)[C@H]1CCCC[C@H]1C(=O)N1CCc2ccccc2C1CCN1C(=O)c2ccccc2C1=O (some centres not stated) | 0.157 °C (inactive) and 0.069 °C (inactive)

Next, values leading:

max delta Tm | Compound
-0.035 °C (inactive) | COC(=O)[C@@H]1CCCC[C@@H]1C(=O)N1CCc2ccccc2[C@@H]1CN1C(=O)c2ccccc2C1=O
0.138 °C (inactive) | O=C(NC[C@@H]1c2ccccc2CCN1C(=O)[C@@H]1CCCC[C@@H]1C(=O)O)OCC1c2ccccc2-c2ccccc21

Same assay, conditions: Recombinant Keap1 Kelch domain, Sypro Orange, at 1.2 µM, top dose 38 µM, active compounds read high

Compound | max delta Tm
Cc1ccc(S(=O)(=O)NNc2nc(N3CC(O)CC3C(=O)O)nc3ccccc23)cc1 (configuration not stated) | 0.172 °C (inactive)
O=C1c2ccccc2C(=O)N1C[C@H]1NCCc2ccccc21 | 0.003 °C (inactive)
Cc1cc(C)c(S(=O)(=O)Nc2ncnc3ccccc23)c(C)c1 | 0.086 °C (inactive)
CCOC(=O)C(C(=O)OCC)c1cc(CN2C(=O)c3ccccc3C2=O)c2ccccc2n1 | 0.127 °C (inactive)

Further lines, results first:

max delta Tm | Compound
-0.003 °C (inactive) | O=C(O)C1CCCCC1C(=O)N1CCc2ccccc2C1c1ccccc1 (configuration not stated)
-0.023 °C (inactive) | COC(=O)[C@@H]1CCCC[C@@H]1C(=O)N1CCc2ccccc2[C@H]1CN1C(=O)c2ccccc2C1=O
-0.022 °C (inactive) | COC(=O)[C@H]1CCCC[C@H]1C(=O)N1CCc2ccccc2[C@H]1CN1C(=O)c2ccccc2C1=O

Same assay, conditions: Recombinant Keap1 Kelch domain, Sypro Orange, at 2.6 µM, top dose 38 µM, active compounds read high

Compound | max delta Tm
O=C(Oc1cc(CN2C(=O)c3ccccc3C2=O)c2ccccc2[n+]1[O-])c1cccc(Cl)c1 | 0.062 °C (inactive)
O=C(O)C1CCCCC1C(=O)N1CCc2ccccc2[C@H]1C(=O)NC12CC3CC(CC(C3)C1)C2 (some centres not stated) | -0.05 °C (inactive)
Cc1cc(C)c(S(=O)(=O)Nc2nc(C(C(=O)OC(C)C)C(=O)C(F)(F)F)nc3ccccc23)c(C)c1 (configuration not stated) | 0.113 °C (inactive)
COc1ccc(CCN=C2C=C(NS(=O)(=O)c3c(C)cc(C)cc3C)c3ccccc3C2=O)cc1 | 0.288 °C (inactive)

Now from value to compound:

max delta Tm | Compound
0.017 °C (inactive) | O=C(O)c1ccccc1C(=O)N1CCc2ccccc2C1CN1C(=O)c2ccccc2C1=O (configuration not stated)
0.138 °C (inactive) | O=C(O)C1CCCCC1C(=O)Nc1ccccc1CN1C(=O)c2ccccc2C1=O (configuration not stated)
-0.027 °C (inactive) | O=C(O)C1CCCCC1C(=O)N1CCCCC1CN1C(=O)c2ccccc2C1=O (configuration not stated)

Same assay, conditions: Recombinant Keap1 Kelch domain, Sypro Orange, at 5 µM, top dose 38 µM, active compounds read high

max delta Tm | Compound
-0.008 °C (inactive) | O=C1c2ccccc2C(=O)N1CC1=NCCc2ccccc21
0.953 °C (inactive) | CC(=O)Nc1cc(NS(=O)(=O)c2c(C)cc(C)cc2C)c2ccccc2c1O

Same assay, conditions: Recombinant Keap1 Kelch domain, Sypro Orange, at 10 µM, top dose 38 µM, active compounds read high

Compound | max delta Tm
Cc1cc(C)c(S(=O)(=O)Nc2cc(C(C(=O)OCc3ccccc3)C(=O)OCc3ccccc3)c(O)c3ccccc23)c(C)c1 | 0.088 °C (inactive)
C[C@H](NC(=O)C1CCCC[C@H]1C(=O)O)c1ccccc1 (mixture of isomers) | -0.003 °C (inactive)

Results, then the compound that gave them:

max delta Tm | Compound
0.13 °C (inactive) | O=C(O)CCCC(=O)N1CCc2ccccc2C1CN1C(=O)c2ccccc2C1=O (configuration not stated)
-0.045 °C (inactive) | O=C(O)CC(=O)N1CCc2ccccc2C1CN1C(=O)c2ccccc2C1=O (configuration not stated)

Same assay, conditions: Recombinant Keap1 Kelch domain, Sypro Orange, at 19.5 µM, top dose 19.5 µM, active compounds read high

max delta Tm [degrees C] | Compound
11.4 | Cc1cc(C)c(S(=O)(=O)Nc2cc(C(C(=O)OC(C)C)C(=O)C(F)(F)F)c(O)c3ccccc23)c(C)c1 (configuration not stated)

Same assay, conditions: Recombinant Keap1 Kelch domain, Sypro Orange, at 19.5 µM, top dose 38 µM, active compounds read high

max delta Tm | Compound
0.3 °C (inactive) | Cc1ccc(S(=O)(=O)NC2=CC(=N[C@@H](C)C(=O)OC(C)(C)C)C(=O)c3ccccc32)c(C)c1
0.174 °C (inactive) | Cc1ccc(S(=O)(=O)NC[C@@H]2c3ccccc3CCN2C(=O)[C@@H]2CCCC[C@@H]2C(=O)O)c(C)c1
0.102 °C (inactive) | COc1ccccc1CCNC(=O)[C@@H]1c2ccccc2CCN1C(=O)C1CCCCC1C(=O)O (some centres not stated)

Same assay, conditions: Recombinant Keap1 Kelch domain, Sypro Orange, at 38 µM, top dose 38 µM, active compounds read high

Compound | max delta Tm
Cc1ccccc1S(=O)(=O)Nc1cc(C(C(=O)OC(C)C)C(=O)C(F)(F)F)c(O)c2ccccc12 (configuration not stated) | 7.77 degrees C
O=C(NCCc1ccccc1)c1ccccc1C(=O)NC[C@@H]1c2ccccc2CCN1C(=O)C1CCCCC1C(=O)O (some centres not stated) | 2.14 degrees C
Cc1ccc(S(=O)(=O)Nc2cc(C(C(=O)OC(C)C)C(=O)C(F)(F)F)c(O)c3ccccc23)c(C)c1 (configuration not stated) | 9.26 degrees C
O=C(NC[C@@H]1c2ccccc2CCN1C(=O)[C@@H]1CCCC[C@@H]1C(=O)O)c1ccc(CN2CCOCC2)cc1 | 0.592 °C (inactive)
C[C@@H](NC(=O)C1CCCC[C@H]1C(=O)O)c1ccccc1 (mixture of isomers) | 0.005 °C (inactive)
O=C(NC[C@@H]1c2ccccc2CCN1C(=O)[C@@H]1CCCC[C@@H]1C(=O)O)c1ccc(CCl)cc1 | 0.364 °C (inactive)
CC(C)OC(=O)C(C(=O)C(F)(F)F)c1cc(NS(=O)(=O)c2ccccc2)c2ccccc2c1O (configuration not stated) | 4.43 degrees C
Cc1ccc(S(=O)(=O)Nc2cc(C(C(=O)OC(C)C)C(=O)C(F)(F)F)c(O)c3ccccc23)cc1 (configuration not stated) | 6.81 degrees C
COC(=O)C(C(=O)OC)c1cc(NS(=O)(=O)c2c(C)cc(C)cc2C)c2ccccc2c1O | 3.82 degrees C
O=C(O)[C@H]1CCCC[C@H]1C(=O)N1CCc2ccccc2[C@H]1CNS(=O)(=O)c1ccc([N+](=O)[O-])cc1 | 0.907 °C (inactive)
Cc1ccc(S(=O)(=O)NC(=O)[C@@H]2c3ccccc3CCN2C(=O)[C@@H]2CCCC[C@@H]2C(=O)O)cc1 | 2.68 degrees C

The next lines start with the values.

max delta Tm | Compound
1.59 degrees C | O=C(O)C1CCCCC1C(=O)N1CCc2ccccc2C1CN1C(=O)Cc2ccccc2C1=O (configuration not stated)
1.66 degrees C | O=C(Cc1ccccc1)NC[C@@H]1c2ccccc2CCN1C(=O)[C@@H]1CCCC[C@@H]1C(=O)O
5.56 degrees C | O=C(O)C1CCCCC1C(=O)N1CCc2ccccc2C1CN1Cc2ccccc2C1=O (configuration not stated)
4.85 degrees C | O=C(O)Cc1ccccc1C(=O)N1CCc2ccccc2[C@H]1CN1C(=O)c2ccccc2C1=O
0.462 °C (inactive) | O=C(O)CCC(=O)N1CCc2ccccc2C1CN1C(=O)c2ccccc2C1=O (configuration not stated)
1.14 degrees C | O=C(O)/C=C\C(=O)N1CCc2ccccc2C1CN1C(=O)c2ccccc2C1=O (configuration not stated)
0.368 °C (inactive) | O=C(O)[C@H]1CCCC[C@H]1C(=O)N1CCc2ccccc2[C@H]1CNS(=O)(=O)c1ccccc1
1.77 degrees C | O=C(NCCO)c1ccccc1C(=O)NC[C@@H]1c2ccccc2CCN1C(=O)C1CCCCC1C(=O)O (some centres not stated)
2.32 degrees C | O=C(O)C1CCCCC1C(=O)N1CCc2ccccc2C1CN1C(=O)[C@H]2CCCC[C@H]2C1=O (some centres not stated)
1.92 degrees C | O=C(NC[C@@H]1c2ccccc2CCN1C(=O)[C@@H]1CCCC[C@@H]1C(=O)O)c1ccccc1CO
2.21 degrees C | O=C(O)[C@@H]1CCCN1C(=O)N1CCc2ccccc2[C@H]1CN1C(=O)c2ccccc2C1=O
1.34 degrees C | NC(=O)[C@H]1CCCC[C@H]1C(=O)N1CCc2ccccc2[C@H]1CN1C(=O)c2ccccc2C1=O
1.86 degrees C | O=C(O)[C@H]1C2C=CC(C2)[C@H]1C(=O)N1CCc2ccccc2C1CN1C(=O)c2ccccc2C1=O (some centres not stated)
2.69 degrees C | O=C(O)[C@H]1CCCC[C@H]1C(=O)N1CCC2=C(CCCC2)C1CN1C(=O)c2ccccc2C1=O (some centres not stated)
0.208 °C (inactive) | O=C1c2ccccc2C(=O)N1C[C@@H]1c2ccccc2CCN1C(=O)C1CCCCC1
3.85 degrees C | O=C(O)C1CCCCC1C(=O)N1CCc2ccccc2C1CN1C(=O)c2ccccc2S1(=O)=O (configuration not stated)
